# Like-named read-outs stand apart in the source and are kept apart here.
# Experiments:
# B16/F1 tumors = assay: In vivo PET/MRI imaging of mice bearing B16/F1 tumors (SUV by VOI); parameters: species or system mouse; conditions: dynamic PET, all tested conditions, after injection
# Protocol: (§1) B16/F1 cells (3x10^6) in a volume of 150 μL 0.9% NaCl were inoculated subcutaneously on the right shoulder of NMRI-Foxn1^nu /Foxn1^nu mice (Janvier Labs, Saint-Berthevin, France). After 1–2 weeks of growth, tumor bearing mice were injected with approximately 15 MBq of ^68Ga-DOTA-NAPamide in a volume of approximately 150 μL 0.9% NaCl into a lateral tail vein via a catheter. Positron emission tomography (PET) / magnetic resonance imaging (MRI) (1 Tesla nanoScan PET/MRI Mediso, Budapest, Hungary) was performed at Berlin Experimental Radionuclide Imaging Center (BERIC), Charité –Universitätsmedizin Berlin. Anatomic MRI scans were acquired using a T2-weighted 2D fast spin echo sequence (T2 FSE 2D) with the following parameters: coronal sequentially, matrix 256x256x20 with dimensions 0.36x0.36x1.5mm^3, TR: 8695 ms, TE: 103 ms, and a flip angle of 180°. PET scans were performed for 90 min starting directly before intravenous injection of tracer. PET images were reconstructed from the raw data with the following image sequence: 6 x 10 s, 6 x 30 s, 5 x 60 s and 8 X 600 s. The tracer standardized uptake value (SUV) in the tumor tissue was determined by manual contouring of a volume of interest (VOI) of the PET images using PMOD 3.610 (PMOD Technologies, Zürich, Switzerland).
# [1] = as above; parameters: species or system mouse; conditions: NMRI-Foxn1nu/Foxn1nu, mouse, B16/F1 tumor, iv, total radioactivity; for SUV: dynamic PET; for SUV at 1 h: 1 h post injection, n = 1
# Protocol: as §1
# [2] = In vivo biodistribution in B16/F1 xenograft-bearing nude mice; parameters: species or system mouse; conditions: NMRI-Foxn1nu/Foxn1nu, mouse, iv, 5 MBq, total radioactivity; for tissue uptake at 1 h: 1 h after i.v. injection; for tissue to tissue ratio at 1 h: Fig 3
# Protocol: (§2) B16/F1 cells (3x10^6) in a volume of 150 μL 0.9% NaCl were inoculated subcutaneously on the right shoulder of NMRI-Foxn1^nu /Foxn1^nu mice (Janvier Labs, Saint-Berthevin, France). After 1–2 weeks of growth, tumor bearing mice were injected with approximately 5 MBq of ^68Ga-DOTA-NAPamide in a volume of 100 μL 0.9% NaCl into a lateral tail vein via a catheter. Mice were sacrificed and dissected 1 h after injection. The B16F1 tumor, blood, stomach, pancreas, small intestine, colon, liver, spleen, kidney, heart, lung, muscle and femur samples were weighed and uptake of radioactivity was measured by a gamma counter (Wallac 1470 Wizard, Perkin Elmer, Waltham, MA, USA). To determine the effect of unlabeled ligand on tumor uptake, either 50 pmol or 500 pmol non-labeled DOTA-NAPamide were co-injected.
# [3] = tested on: MC1R-expressing B16/F1 tumor xenografts; assay: as above; parameters: species or system mouse
# Protocol: as §2
# [4] = target: T1, murine MC1R expressed in the B16/F1 cells (Mus musculus, UniProt Q01727); assay: Competitive binding (ligand displacement) with 125I-NDP-MSH on whole B16/F1 cells; conditions: displacement of 125I-NDP-MSH, n = 3
# T1 construct: endogenous in cells; host or cells: B16/F1 mouse melanoma cells (live, whole cells)
# T1 sequence (Q01727 whole entry): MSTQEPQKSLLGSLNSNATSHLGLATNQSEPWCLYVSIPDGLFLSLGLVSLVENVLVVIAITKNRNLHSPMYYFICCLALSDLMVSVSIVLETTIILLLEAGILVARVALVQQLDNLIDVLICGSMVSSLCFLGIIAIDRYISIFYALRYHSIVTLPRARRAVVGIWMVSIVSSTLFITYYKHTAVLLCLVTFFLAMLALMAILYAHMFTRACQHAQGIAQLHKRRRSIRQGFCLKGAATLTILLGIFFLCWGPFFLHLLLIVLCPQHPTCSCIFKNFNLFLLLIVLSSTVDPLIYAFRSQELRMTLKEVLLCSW
# Protocol: [Nle^4,d-Phe^7]-melanocyte-stimulating hormone (NDP-MSH) was iodinated with Na^125I by the chloramine-T method and it was purified from unlabeled peptide by HPLC as described before. Saturation and competitive binding studies were performed with live cells. 40.000 B16/F1 cells were seeded per well into a 96-well flat bottom cell culture plate. For competitive binding, medium was removed and 50 μL of binding buffer (50 mM 4-(2-hydroxyethyl)-1-piperazineethanesulfonic acid (HEPES) pH 7.4, 5 mM MgCl2, 1 mM CaCl2, 0.5% BSA, protease inhibitor cocktail cOmplete [Roche Applied Science, Penzberg, Germany]) with increasing concentrations of non-radioactive peptide was added to the cells. Additionally, 50 μL binding buffer with 100,000 counts per minute (cpm) of ^125I-NDP-MSH was added. After 30 minutes of incubation at 37°C, cells were washed 4 times with cold washing buffer (50 mM Tris-HCl pH 7.4, 125 mM NaCl, 0.05% BSA). 100 μL 1 N NaOH was added to lyse cells. Lysates were transferred into vials and measured using a gamma counter (Wallac 1470 Wizard, PerkinElmer, Waltham, MA, USA). The saturation assay was performed by adding 100 μL of binding buffer with increasing amounts of ^125I-NDP-MSH to the cells in the presence or absence of 1 μM of unlabeled NDP-MSH.
# tumor = conditions: 4 h p.i., 111In and 67Ga labels; cited from earlier work
# [5] = B16/F1 cells, Fig 1B (impact of gallium chelation)
compound,measurement,setting,value
"CCCC[C@H](NC(C)=O)C(=O)N[C@@H](CC(=O)O)C(=O)N[C@@H](Cc1c[nH]cn1)C(=O)N[C@H](Cc1ccccc1)C(=O)N[C@@H](CCCNC(=N)N)C(=O)N[C@@H](Cc1c[nH]c2ccccc12)C(=O)NCC(=O)N[C@@H](CCCCNC(=O)CN1CCN(CC(=O)O)CCN(CC(=O)O)CCN(CC(=O)O)CC1)C(N)=O [68Ga-DOTA-NAPamide, metal not drawn]",time to maximum tracer level in the tumors,B16/F1 tumors,5 to 10 min
same,SUV,"[1]; 15 MBq, the other tumors (other three formulations), read-out: initial amount of radioactivity in the tumor (mean SUV)",0.43 SUV
same,SUV at 1 h,"[1]; 15 MBq, purified tracer",0.42 SUV
same,SUV at 1 h,"[1]; 15 MBq, unpurified tracer (standard procedure)",0.119 SUV
same,SUV,"[1]; animal with 1,000-fold excess of cold peptide mass, read-out: initial amount of radioactivity in the tumor (SUV)",0.63 SUV
same,SUV at 1 h,"[1]; purified + 1,000-fold excess of cold peptide",0.367 SUV
same,SUV at 1 h,"[1]; purified + 10,000-fold excess of unlabeled peptide",0.152 SUV
same,tissue uptake at 1 h,"[2]; B16/F1 tumor, HPLC-purified tracer, ~5 MBq, ± 95% CI, n = 7, read-out: tumor uptake",7 %ID/g
same,tissue uptake at 1 h,"[2]; B16/F1 tumor, non-purified tracer (standard procedure), ~5 MBq, ± 95% CI, n = 7, read-out: tumor uptake",0.78 %ID/g
same,tissue uptake at 1 h,"[2]; all other tissues (except tumor and kidneys), mostly below, read-out: uptake in all other tissues (except tumor and kidneys)",< 0.5 %ID/g
same,tissue to tissue ratio at 1 h,"[2]; tumor / all other organs investigated, HPLC-purified tracer, read-out: tumor-to-tissue ratios for all other organs investigated",> 15
same,tissue to tissue ratio at 1 h,"[2]; tumor / kidney, HPLC-purified tracer, read-out: tumor-to-kidney ratio",2.33
same,decrease in tumor uptake vs purified tracer alone,"[3]; 500 pmol coinjected unlabeled peptide, 1 h",approximately 6 fold
same,"increase in tumor uptake, purified vs non-purified",[3]; 1 h post injection,more than 8 fold
same,tumor uptake,"[3]; HPLC-purified tracer, 1 h after i.v. injection, ~5 MBq, ± 95% CI, n = 7",7.0% ± 1.7%
same,tumor uptake,"[3]; non-purified tracer (standard procedure), 1 h after i.v. injection, ~5 MBq, ± 95% CI, n = 7",0.78% ± 0.55%
same,tumor uptake,"[3]; purified tracer + coinjection of 50 pmol (1,000-fold) cold DOTA-NAPamide, 1 h, Fig 4, n = 3, ± 95% CI",3.8% ± 3.6%
same,tumor uptake,"[3]; purified tracer + coinjection of 500 pmol (10,000-fold) cold DOTA-NAPamide, 1 h, Fig 4, n = 3, ± 95% CI",1.1% ± 0.5%
same,tumor uptake,"[3]; purified tracer alone, 5 MBq (~50 fmol), 1 h, Fig 4, n = 3, ± 95% CI",6.7% ± 1.9%
same,kidney uptake,"[3]; purified tracer, 1 h after i.v. injection, ± 95% CI",3.0% ± 0.6%
same,kidney uptake,"[3]; standard procedure (non-purified), 1 h after i.v. injection, ± 95% CI",4.6% ± 2.7%
"CCCC[C@H](NC(C)=O)C(=O)N[C@@H](CC(=O)O)C(=O)N[C@@H](Cc1c[nH]cn1)C(=O)N[C@H](Cc1ccccc1)C(=O)N[C@@H](CCCNC(=N)N)C(=O)N[C@@H](Cc1c[nH]c2ccccc12)C(=O)NCC(=O)N[C@@H](CCCCNC(=O)CN1CCN(CC(=O)O)CCN(CC(=O)O)CCN(CC(=O)O)CC1)C(N)=O [DOTA-NAPamide, Acetyl-Nle-Asp-His-D-Phe-Arg-Trp-Gly-Lys(DOTA)-NH2]",Ki,[4]; [5],0.4 nM
same,Ki,"[4]; whole B16/F1 cells, Fig 1A",0.37 nM
same,tumor uptake,tumor,7.56% to 9.43%
Ga-labeled DOTA-NAPamide: DOTA-NAPamide complexed with non-radioactive Ga (XDHFRWGK; Linear alpha-MSH analogue Ac-Nle-Asp-His-D-Phe-Arg-Trp-Gly-Lys(DOTA)-NH2: N-terminal acetyl; X1 = norleucine; D-Phe4; Lys8 side chain conjugated to DOTA chelating non-radioactive Ga; C-terminal amide),Ki,[4]; [5],0.43 nM
